# Data published in patent US6472348B1, “Pyridone derivatives and herbicides” (Kumiai Chemical Industry Co., Ltd., priority 1996, dated 2002).
# Test system: pale smartweed (Po)
# Assay: Test Example 9: crop plant selectivity by upland field foliage treatment (wheat), herbicidal effects
# Type: in vivo
# Set-up: scale not given here
# Settings: dose 1.6 g ai/10a, 14th day after treatment
# How it was run: (§1)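 Read-out: weed control and wheat injury, rated by a defined scoring standard 14 days after foliar application.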
row,SMILES,Herbicidal effects Po
1,CCCc1cc2c(Cl)cc(F)c(-c3ccc(C(F)(F)F)n(C)c3=O)c2o1 [Compound 5-3],5
2,CCOC(=O)C(CC)Sc1cc(-c2ccc(C(F)(F)F)n(C)c2=O)c(Cl)cc1Cl (racemic) [1-125],5

# Test system: common lambsquarters (Ch)
# Assay: as above
# Type: in vivo
# Set-up: scale not given here
# Settings: dose 1.6 g ai/10a, 14th day after treatment
# How it was run: as §1
row,SMILES,Herbicidal effects Ch
1,CCCc1cc2c(Cl)cc(F)c(-c3ccc(C(F)(F)F)n(C)c3=O)c2o1 [Compound 5-3],5
2,CCOC(=O)C(CC)Sc1cc(-c2ccc(C(F)(F)F)n(C)c2=O)c(Cl)cc1Cl (racemic) [1-125],5

# Test system: China jute (Ab)
# Assay: as above
# Type: in vivo
# Set-up: scale not given here
# Settings: dose 1.6 g ai/10a, 14th day after treatment
# How it was run: as §1
row,SMILES,Herbicidal effects Ab
1,CCCc1cc2c(Cl)cc(F)c(-c3ccc(C(F)(F)F)n(C)c3=O)c2o1 [Compound 5-3],5
2,CCOC(=O)C(CC)Sc1cc(-c2ccc(C(F)(F)F)n(C)c2=O)c(Cl)cc1Cl (racemic) [1-125],5

# Test system: slender amaranth (Am)
# Assay: as above
# Type: in vivo
# Set-up: scale not given here
# Settings: dose 1.6 g ai/10a, 14th day after treatment
# How it was run: as §1
row,SMILES,Herbicidal effects Am
1,CCCc1cc2c(Cl)cc(F)c(-c3ccc(C(F)(F)F)n(C)c3=O)c2o1 [Compound 5-3],5
2,CCOC(=O)C(CC)Sc1cc(-c2ccc(C(F)(F)F)n(C)c2=O)c(Cl)cc1Cl (racemic) [1-125],5

# Test system: barnyardgrass (Ec)
# Assay: Test Example 1: herbicidal effects by paddy field soil treatment;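 note: grade of growth control; 5 = at least 90%; 4 = 70 to 90%; 3 = 50 to 70%; 2 = 30 to 50%; 1 = 10 to 30%; 0 = under 10%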
# Type: in vivo
# Settings: 100 g of the active ingredient per 10 ares, 21st day after the application, index 0-5 of Table 47
# How it was run: (§2)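 Flooded paddy-soil pots (3 cm water) sown after puddling/leveling; treatment 100 g a.i./10 ares; greenhouse culture; herbicidal effect rated visually on a scoring scale at 21 d post-application.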
row,SMILES,Herbicidal effects Ec
1,CCCc1cc2c(Cl)cc(F)c(-c3ccc(C(F)(F)F)n(C)c3=O)c2o1 [Compound 5-3],5

# Test system: bulrush (Sc)
# Assay: as above
# Type: in vivo
# Settings: 100 g of the active ingredient per 10 ares, 21st day after the application, index 0-5 of Table 47
# How it was run: as §2
row,SMILES,Herbicidal effects Sc
1,CCCc1cc2c(Cl)cc(F)c(-c3ccc(C(F)(F)F)n(C)c3=O)c2o1 [Compound 5-3],5

# Test system: monochoria (Mo)
# Assay: as above
# Type: in vivo
# Settings: 100 g of the active ingredient per 10 ares, 21st day after the application, index 0-5 of Table 47
# How it was run: as §2
row,SMILES,Herbicidal effects Mo
1,CCCc1cc2c(Cl)cc(F)c(-c3ccc(C(F)(F)F)n(C)c3=O)c2o1 [Compound 5-3],5

# Test system: barnyardgrass (Ec)
# Assay: Test Example 3: herbicidal effects by upland field foliage treatment
# Type: in vivo
# Set-up: scale not given here
# Settings: 100 g active ingredient per 10 ares, evaluated 14th day after treatment
# How it was run: (§3)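 Scoring used a standard effect scale on the 14th day post-treatment, with plants held in a greenhouse throughout. Foliar application was made to weeds raised from seed in sand-filled pots for 2 weeks.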
row,SMILES,Herbicidal effects Ec
1,CCCc1cc2c(Cl)cc(F)c(-c3ccc(C(F)(F)F)n(C)c3=O)c2o1 [Compound 5-3],5

# Same assay, conditions: 100 g of the active ingredient per 10 ares, evaluated on the 14th day after treatment
row,SMILES,Herbicidal effects Ec
1,CCOC(=O)C(CC)Sc1cc(-c2ccc(C(F)(F)F)n(C)c2=O)c(Cl)cc1Cl (racemic) [1-125],5

# Test system: Diaitaria ciliaris (Di)
# Assay: as above
# Type: in vivo
# Set-up: scale not given here
# Settings: 100 g active ingredient per 10 ares, evaluated 14th day after treatment
# How it was run: as §3
row,SMILES,Herbicidal effects Di
1,CCCc1cc2c(Cl)cc(F)c(-c3ccc(C(F)(F)F)n(C)c3=O)c2o1 [Compound 5-3],5

# Same assay, conditions: 100 g of the active ingredient per 10 ares, evaluated on the 14th day after treatment
row,SMILES,Herbicidal effects Di
1,CCOC(=O)C(CC)Sc1cc(-c2ccc(C(F)(F)F)n(C)c2=O)c(Cl)cc1Cl (racemic) [1-125],5

# Test system: pale smartweed (Po)
# Assay: as above
# Type: in vivo
# Set-up: scale not given here
# Settings: 100 g active ingredient per 10 ares, evaluated 14th day after treatment
# How it was run: as §3
row,SMILES,Herbicidal effects Po
1,CCCc1cc2c(Cl)cc(F)c(-c3ccc(C(F)(F)F)n(C)c3=O)c2o1 [Compound 5-3],5

# Same assay, conditions: 100 g of the active ingredient per 10 ares, evaluated on the 14th day after treatment
row,SMILES,Herbicidal effects Po
1,CCOC(=O)C(CC)Sc1cc(-c2ccc(C(F)(F)F)n(C)c2=O)c(Cl)cc1Cl (racemic) [1-125],5

# Test system: common lambsquarters (Ch)
# Assay: as above
# Type: in vivo
# Set-up: scale not given here
# Settings: 100 g active ingredient per 10 ares, evaluated 14th day after treatment
# How it was run: as §3
row,SMILES,Herbicidal effects Ch
1,CCCc1cc2c(Cl)cc(F)c(-c3ccc(C(F)(F)F)n(C)c3=O)c2o1 [Compound 5-3],5

# Same assay, conditions: 100 g of the active ingredient per 10 ares, evaluated on the 14th day after treatment
row,SMILES,Herbicidal effects Ch
1,CCOC(=O)C(CC)Sc1cc(-c2ccc(C(F)(F)F)n(C)c2=O)c(Cl)cc1Cl (racemic) [1-125],5

# Test system: rice flatsedge (Ci)
# Assay: as above
# Type: in vivo
# Set-up: scale not given here
# Settings: 100 g active ingredient per 10 ares, evaluated 14th day after treatment
# How it was run: as §3
row,SMILES,Herbicidal effects Ci
1,CCCc1cc2c(Cl)cc(F)c(-c3ccc(C(F)(F)F)n(C)c3=O)c2o1 [Compound 5-3],5

# Same assay, conditions: 100 g of the active ingredient per 10 ares, evaluated on the 14th day after treatment
row,SMILES,Herbicidal effects Ci
1,CCOC(=O)C(CC)Sc1cc(-c2ccc(C(F)(F)F)n(C)c2=O)c(Cl)cc1Cl (racemic) [1-125],5

# Test system: slender amaranth (Am)
# Assay: as above
# Type: in vivo
# Set-up: scale not given here
# Settings: 100 g active ingredient per 10 ares, evaluated 14th day after treatment
# How it was run: as §3
row,SMILES,Herbicidal effects Am
1,CCCc1cc2c(Cl)cc(F)c(-c3ccc(C(F)(F)F)n(C)c3=O)c2o1 [Compound 5-3],5

# Same assay, conditions: 100 g of the active ingredient per 10 ares, evaluated on the 14th day after treatment
row,SMILES,Herbicidal effects Am
1,CCOC(=O)C(CC)Sc1cc(-c2ccc(C(F)(F)F)n(C)c2=O)c(Cl)cc1Cl (racemic) [1-125],5

# Test system: barnyardgrass (Ec)
# Assay: Test Example 2: herbicidal effects by upland field soil treatment;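 note: grade of growth control; 5 = at least 90%; 4 = 70 to 90%; 3 = 50 to 70%; 2 = 30 to 50%; 1 = 10 to 30%; 0 = under 10%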
# Type: in vivo
# Settings: 100 g of the active ingredient per 10 ares, evaluated on the 21st day after application
# Excerpt: (§4) (Test on Herbicidal Effects by Upland Field Soil Treatment)
row,SMILES,Herbicidal effects Ec
1,CCCc1cc2c(Cl)cc(F)c(-c3ccc(C(F)(F)F)n(C)c3=O)c2o1 [Compound 5-3],5

# Test system: pale smartweed (Po)
# Assay: as above
# Type: in vivo
# Settings: 100 g of the active ingredient per 10 ares, evaluated on the 21st day after application
# Excerpt: as §4
row,SMILES,Herbicidal effects Po
1,CCCc1cc2c(Cl)cc(F)c(-c3ccc(C(F)(F)F)n(C)c3=O)c2o1 [Compound 5-3],5

# Test system: Digitaria ciliaris (Di)
# Assay: as above
# Type: in vivo
# Settings: 100 g of the active ingredient per 10 ares, evaluated on the 21st day after application
# Excerpt: as §4
row,SMILES,Herbicidal effects Di
1,CCCc1cc2c(Cl)cc(F)c(-c3ccc(C(F)(F)F)n(C)c3=O)c2o1 [Compound 5-3],5

# Test system: common lambsquarters (Ch)
# Assay: as above
# Type: in vivo
# Settings: 100 g of the active ingredient per 10 ares, evaluated on the 21st day after application
# Excerpt: as §4
row,SMILES,Herbicidal effects Ch
1,CCCc1cc2c(Cl)cc(F)c(-c3ccc(C(F)(F)F)n(C)c3=O)c2o1 [Compound 5-3],5

# Test system: rice flatsedge (Ci)
# Assay: as above
# Type: in vivo
# Settings: 100 g of the active ingredient per 10 ares, evaluated on the 21st day after application
# Excerpt: as §4
row,SMILES,Herbicidal effects Ci
1,CCCc1cc2c(Cl)cc(F)c(-c3ccc(C(F)(F)F)n(C)c3=O)c2o1 [Compound 5-3],5

# Test system: slender amaranth (Am)
# Assay: as above
# Type: in vivo
# Settings: 100 g of the active ingredient per 10 ares, evaluated on the 21st day after application
# Excerpt: as §4
row,SMILES,Herbicidal effects Am
1,CCCc1cc2c(Cl)cc(F)c(-c3ccc(C(F)(F)F)n(C)c3=O)c2o1 [Compound 5-3],5

# Test system: corn (Ze)
# Assay: Test Example 11: crop plant selectivity by upland field foliage treatment (corn), phytotoxicity
# Settings: corn; foliage treatment; dose 1.6 g ai/10a; evaluated on 14th day after treatment; index per Table 47
# Procedure: (§5) (Test on Crop Plant Selectivity by Upland Field Foliage Treatment)
# (§6) In a plastic pot (surface area: 600 cm^2) filled with sand, corn (Ze), pale smartweed (Po), slender amaranth (Am), common lambsquarters (Ch) and China jute (Ab) were sown and cultured in a green house for 2 weeks. […] The plants were then cultured in a green house, and the evaluation of the herbicidal effects and phytotoxicity was conducted on the 14th day after the treatment in accordance with the standards as identified in Table 47.
row,SMILES,Phytotoxicity Ze
1,CCCc1cc2c(Cl)cc(F)c(-c3ccc(C(F)(F)F)n(C)c3=O)c2o1 [Compound 5-3],2

# Same assay, conditions: upland field foliage treatment, dose 1.6 g ai/10a, 14th day after treatment
row,SMILES,Phytotoxicity Ze
1,CCOC(=O)C(CC)Sc1cc(-c2ccc(C(F)(F)F)n(C)c2=O)c(Cl)cc1Cl (racemic) [1-125],2

# Test system: wheat (Tr)
# Assay: Test Example 9: crop plant selectivity by upland field foliage treatment (wheat), phytotoxicity;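 note: grade of crop injury; 5 = at least 90%; 4 = 70 to 90%; 3 = 50 to 70%; 2 = 30 to 50%; 1 = 10 to 30%; 0 = under 10%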
# Settings: dose 1.6 g ai/10a, 14th day after treatment
# How it was run: as §1
row,SMILES,Phytotoxicity Tr
1,CCCc1cc2c(Cl)cc(F)c(-c3ccc(C(F)(F)F)n(C)c3=O)c2o1 [Compound 5-3],1
2,CCOC(=O)C(CC)Sc1cc(-c2ccc(C(F)(F)F)n(C)c2=O)c(Cl)cc1Cl (racemic) [1-125],2

# Test system: pale smartweed (Po)
# Assay: Test Example 11: crop plant selectivity by upland field foliage treatment (corn), herbicidal effects
# Type: in vivo
# Set-up: scale not given here
# Settings: pale smartweed; foliage treatment; dose 1.6 g ai/10a; evaluated on 14th day after treatment; index per Table 47
# Procedure: as §5, §6
row,SMILES,Herbicidal effects Po
1,CCCc1cc2c(Cl)cc(F)c(-c3ccc(C(F)(F)F)n(C)c3=O)c2o1 [Compound 5-3],5

# Same assay, conditions: upland field foliage treatment (corn test), dose 1.6 g ai/10a, 14th day after treatment
row,SMILES,Herbicidal effects Po
1,CCOC(=O)C(CC)Sc1cc(-c2ccc(C(F)(F)F)n(C)c2=O)c(Cl)cc1Cl (racemic) [1-125],5

# Test system: common lambsquarters (Ch)
# Assay: as above
# Type: in vivo
# Set-up: scale not given here
# Settings: common lambsquarters; foliage treatment; dose 1.6 g ai/10a; evaluated on 14th day after treatment; index per Table 47
# Procedure: as §5, §6
row,SMILES,Herbicidal effects Ch
1,CCCc1cc2c(Cl)cc(F)c(-c3ccc(C(F)(F)F)n(C)c3=O)c2o1 [Compound 5-3],5

# Same assay, conditions: upland field foliage treatment (corn test), dose 1.6 g ai/10a, 14th day after treatment
row,SMILES,Herbicidal effects Ch
1,CCOC(=O)C(CC)Sc1cc(-c2ccc(C(F)(F)F)n(C)c2=O)c(Cl)cc1Cl (racemic) [1-125],5

# Test system: China jute (Ab)
# Assay: as above
# Type: in vivo
# Set-up: scale not given here
# Settings: China jute; foliage treatment; dose 1.6 g ai/10a; evaluated on 14th day after treatment; index per Table 47
# Procedure: as §5, §6
row,SMILES,Herbicidal effects Ab
1,CCCc1cc2c(Cl)cc(F)c(-c3ccc(C(F)(F)F)n(C)c3=O)c2o1 [Compound 5-3],5

# Same assay, conditions: upland field foliage treatment (corn test), dose 1.6 g ai/10a, 14th day after treatment
row,SMILES,Herbicidal effects Ab
1,CCOC(=O)C(CC)Sc1cc(-c2ccc(C(F)(F)F)n(C)c2=O)c(Cl)cc1Cl (racemic) [1-125],5

# Test system: slender amaranth (Am)
# Assay: as above
# Type: in vivo
# Set-up: scale not given here
# Settings: slender amaranth; foliage treatment; dose 1.6 g ai/10a; evaluated on 14th day after treatment; index per Table 47
# Procedure: as §5, §6
row,SMILES,Herbicidal effects Am
1,CCCc1cc2c(Cl)cc(F)c(-c3ccc(C(F)(F)F)n(C)c3=O)c2o1 [Compound 5-3],5

# Same assay, conditions: upland field foliage treatment (corn test), dose 1.6 g ai/10a, 14th day after treatment
row,SMILES,Herbicidal effects Am
1,CCOC(=O)C(CC)Sc1cc(-c2ccc(C(F)(F)F)n(C)c2=O)c(Cl)cc1Cl (racemic) [1-125],5
